Experimental data: patent publication US20160250303A1, “PERFORIN-2 ACTIVATORS AND INHIBITORS AS DRUG TARGETS FOR INFECTIOUS DISEASE AND GUT INFLAMMATION” (UNIVERSITY OF MIAMI, priority 2013, published 2016)

Test system: P-2 mediated bacterial killing
Experiment: Perforin-2 mediated killing of MRSA by BV2 phagocytic cells in vitro (FIG. 14c)
Conditions: phagocytic cell BV2, in vitro, listed as MLN4294

NS(=O)(=O)OC[C@@H]1CC(n2ccc3c(N[C@H]4CCc5ccccc54)ncnc32)C[C@@H]1O (stereo partly shown) [MLN 4924]
P-2 mediated bacterial killing: blocked
